Results reported in ChEMBL document CHEMBL3885861, “Open TG-GATES”.

Organism: Rattus norvegicus
Test: Open TG-GATES - Regimen: Daily Repeat
Assay type: toxicity, organism-based, Sprague-Dawley
Set-up: regimen Daily Repeat, gender Male, age 6 weeks
Settings: in vivo, po, 0 mg/kg, route gavage, dose level Control; for APTT / Bas / Eos / Fbg / Hb / Ht / Lym / MCH / MCHC / MCV / Mono / Neu / PT / Plat / RBC / Ret / WBC: tissue Blood; for KIDNEY_L / KIDNEY_R / KIDNEY_TOTAL: tissue Kidney; for LIVER: tissue Liver; for A/G / ALP / ALT / AST / BUN / CRE / Ca / Cl / DBIL / GLC / IP / K / LDH / Na / PL / RALB / TBIL / TC / TG / TP / gamma-GTP: tissue Plasma

SMILES: CCc1oc2ccccc2c1C(=O)c1cc(I)c(O)c(I)c1 [BENZIODARONE]
- TERMINAL_BW (72 h, time 3 day): 239.1 g
- APTT (72 h, time 3 day): 17.3 s
- Bas (72 h, time 3 day): 0%
- Eos (72 h, time 3 day): 0.8%
- Fbg (72 h, time 3 day): 216.8 mg/dL
- Hb (72 h, time 3 day): 14.1 g/dL
- Ht (72 h, time 3 day): 41.9%
- Lym (72 h, time 3 day): 76.2%
- MCH (72 h, time 3 day): 21.4 pg
- MCHC (72 h, time 3 day): 33.7%
- MCV (72 h, time 3 day): 63.6 fL
- Mono (72 h, time 3 day): 7%
- Neu (72 h, time 3 day): 15.6%
- PT (72 h, time 3 day): 11.7 s
- Plat (72 h, time 3 day): 125.7 x10_4/uL
- RBC (72 h, time 3 day): 658.4 x10_4/ul
- Ret (72 h, time 3 day): 6.2%
- WBC (72 h, time 3 day): 99.6 x10_2/uL
- KIDNEY_L (72 h, time 3 day): 1.1 g
- KIDNEY_R (72 h, time 3 day): 1.1 g
- KIDNEY_TOTAL (72 h, time 3 day): 2.2 g
- LIVER (72 h, time 3 day): 11.6 g
- A/G (72 h, time 3 day): 1.8
- ALP (72 h, time 3 day): 882.4 IU/L
- ALT (72 h, time 3 day): 39 IU/L
- AST (72 h, time 3 day): 62.6 IU/L
- BUN (72 h, time 3 day): 17.4 mg/dL
- CRE (72 h, time 3 day): 0.5 mg/dL
- Ca (72 h, time 3 day): 10.7 mg/dL
- Cl (72 h, time 3 day): 104.6 meq/L
- DBIL (72 h, time 3 day): 0.014 mg/dL
- GLC (72 h, time 3 day): 203.2 mg/dL
- IP (72 h, time 3 day): 7.2 mg/dL
- K (72 h, time 3 day): 4.7 meq/L
- LDH (72 h, time 3 day): 79.6 IU/L
- Na (72 h, time 3 day): 141 meq/L
- PL (72 h, time 3 day): 147.4 mg/dL
- RALB (72 h, time 3 day): 3.7 g/dL
- TBIL (72 h, time 3 day): 0.3 mg/dL
- TC (72 h, time 3 day): 75.4 mg/dL
- TG (72 h, time 3 day): 103.6 mg/dL
- TP (72 h, time 3 day): 5.7 g/dL
- gamma-GTP (72 h, time 3 day): 1.2 IU/L
- TERMINAL_BW ([…], time 7 day): 272.7 g
- TERMINAL_BW ([…], time 14 day): 335.3 g
- TERMINAL_BW ([…], time 28 day): 397 g
- APTT ([…], time 7 day): 16.8 s
- Bas ([…], time 7 day): 0%
- Eos ([…], time 7 day): 1%
- Fbg ([…], time 7 day): 220 mg/dL
- Hb ([…], time 7 day): 14.2 g/dL
- Ht ([…], time 7 day): 41.6%
- Lym ([…], time 7 day): 77.8%
- MCH ([…], time 7 day): 21.4 pg
- MCHC ([…], time 7 day): 34.1%
- MCV ([…], time 7 day): 62.8 fL
- Mono ([…], time 7 day): 7.2%
- Neu ([…], time 7 day): 14.2%
- PT ([…], time 7 day): 11.5 s
- Plat ([…], time 7 day): 125.2 x10_4/uL
- RBC ([…], time 7 day): 662.2 x10_4/ul
- Ret ([…], time 7 day): 4.5%
- WBC ([…], time 7 day): 108.6 x10_2/uL
- APTT ([…], time 14 day): 17.1 s
- Bas ([…], time 14 day): 0%
- Eos ([…], time 14 day): 1%
- Fbg ([…], time 14 day): 220.6 mg/dL
- Hb ([…], time 14 day): 14.2 g/dL
- Ht ([…], time 14 day): 41.9%
- Lym ([…], time 14 day): 80.8%
- MCH ([…], time 14 day): 20.9 pg
- MCHC ([…], time 14 day): 34%
- MCV ([…], time 14 day): 61.5 fL
- Mono ([…], time 14 day): 6%
- Neu ([…], time 14 day): 12.6%
- PT ([…], time 14 day): 11.5 s
- Plat ([…], time 14 day): 115.3 x10_4/uL
- RBC ([…], time 14 day): 683.2 x10_4/ul
- Ret ([…], time 14 day): 3.1%
- WBC ([…], time 14 day): 110 x10_2/uL
- APTT ([…], time 28 day): 17.9 s
- Bas ([…], time 28 day): 0%
- Eos ([…], time 28 day): 1.6%
- Fbg ([…], time 28 day): 215.8 mg/dL
- Hb ([…], time 28 day): 15.8 g/dL
- Ht ([…], time 28 day): 46.8%
- Lym ([…], time 28 day): 80%
- MCH ([…], time 28 day): 19.5 pg
- MCHC ([…], time 28 day): 33.7%
- MCV ([…], time 28 day): 57.7 fL
- Mono ([…], time 28 day): 5.4%
- Neu ([…], time 28 day): 13.4%
- PT ([…], time 28 day): 11.9 s
- Plat ([…], time 28 day): 117.3 x10_4/uL
- RBC ([…], time 28 day): 812.6 x10_4/ul
- Ret ([…], time 28 day): 3.1%
- WBC ([…], time 28 day): 150.6 x10_2/uL
- KIDNEY_L ([…], time 7 day): 1.1 g
- KIDNEY_R ([…], time 7 day): 1.2 g
- KIDNEY_TOTAL ([…], time 7 day): 2.3 g
- KIDNEY_L ([…], time 14 day): 1.3 g
- KIDNEY_R ([…], time 14 day): 1.3 g
- KIDNEY_TOTAL ([…], time 14 day): 2.6 g
- KIDNEY_L ([…], time 28 day): 1.4 g
- KIDNEY_R ([…], time 28 day): 1.4 g
- KIDNEY_TOTAL ([…], time 28 day): 2.9 g
- LIVER ([…], time 7 day): 12.8 g
- LIVER ([…], time 14 day): 15.1 g
- LIVER ([…], time 28 day): 15.6 g
- A/G ([…], time 7 day): 1.7
- ALP ([…], time 7 day): 916.8 IU/L
- ALT ([…], time 7 day): 36 IU/L
- AST ([…], time 7 day): 62.8 IU/L
- BUN ([…], time 7 day): 19.2 mg/dL
- CRE ([…], time 7 day): 0.5 mg/dL
- Ca ([…], time 7 day): 10.6 mg/dL
- Cl ([…], time 7 day): 104.6 meq/L
- DBIL ([…], time 7 day): 0.048 mg/dL
- GLC ([…], time 7 day): 192 mg/dL
- IP ([…], time 7 day): 6.9 mg/dL
- K ([…], time 7 day): 4.9 meq/L
- LDH ([…], time 7 day): 86 IU/L
- Na ([…], time 7 day): 139.6 meq/L
- PL ([…], time 7 day): 141.8 mg/dL
- RALB ([…], time 7 day): 3.6 g/dL
- TBIL ([…], time 7 day): 0.3 mg/dL
- TC ([…], time 7 day): 65 mg/dL
- TG ([…], time 7 day): 114.2 mg/dL
- TP ([…], time 7 day): 5.7 g/dL
- gamma-GTP ([…], time 7 day): 1.8 IU/L
- A/G ([…], time 14 day): 1.6
- ALP ([…], time 14 day): 789.8 IU/L
- ALT ([…], time 14 day): 32.2 IU/L
- AST ([…], time 14 day): 63.2 IU/L
- BUN ([…], time 14 day): 19.6 mg/dL
- CRE ([…], time 14 day): 0.5 mg/dL
- Ca ([…], time 14 day): 10.5 mg/dL
- Cl ([…], time 14 day): 104.4 meq/L
- DBIL ([…], time 14 day): 0 mg/dL
- GLC ([…], time 14 day): 201 mg/dL
- IP ([…], time 14 day): 6.7 mg/dL
- K ([…], time 14 day): 4.9 meq/L
- LDH ([…], time 14 day): 97.2 IU/L
- Na ([…], time 14 day): 140.6 meq/L
- PL ([…], time 14 day): 149 mg/dL
- RALB ([…], time 14 day): 3.7 g/dL
- TBIL ([…], time 14 day): 0.3 mg/dL
- TC ([…], time 14 day): 72.4 mg/dL
- TG ([…], time 14 day): 152 mg/dL
- TP ([…], time 14 day): 6 g/dL
- gamma-GTP ([…], time 14 day): 2 IU/L
- A/G ([…], time 28 day): 1.5
- ALP ([…], time 28 day): 606.6 IU/L
- ALT ([…], time 28 day): 27 IU/L
- AST ([…], time 28 day): 57 IU/L
- BUN ([…], time 28 day): 19.8 mg/dL
- CRE ([…], time 28 day): 0.6 mg/dL
- Ca ([…], time 28 day): 10.6 mg/dL
- Cl ([…], time 28 day): 105.6 meq/L
- DBIL ([…], time 28 day): 0.04 mg/dL
- GLC ([…], time 28 day): 200 mg/dL
- IP ([…], time 28 day): 5.7 mg/dL
- K ([…], time 28 day): 4.5 meq/L
- LDH ([…], time 28 day): 79 IU/L
- Na ([…], time 28 day): 140 meq/L
- PL ([…], time 28 day): 135 mg/dL
- RALB ([…], time 28 day): 3.7 g/dL
- TBIL ([…], time 28 day): 0.3 mg/dL
- TC ([…], time 28 day): 58 mg/dL
- TG ([…], time 28 day): 164.8 mg/dL
- TP ([…], time 28 day): 6.2 g/dL
- gamma-GTP ([…], time 28 day): 2.2 IU/L
